Results: the kinase profiling compilation of Christmann-Franck et al. (2016)

What was measured:
Test in all cases: radiometric filter-binding kinase assay, Kinase HotSpot
Conditions in all cases: compound 0.5 µM; ATP 10 µM
CDK9 CCNT1 (human) = CDK9 CCNT1 (human) (UniProt P50750+O60563)
STK33 (human) = STK33 (human) (UniProt Q9BYT3)
AURKB (human) = AURKB (human) (UniProt Q96GD4)
IGF1R (human) = IGF1R (human) (UniProt P08069)
MYO3B (human) = MYO3B (human) (UniProt Q8WXR4)
AXL (human) = AXL (human) (UniProt P30530)
PLK3 (human) = PLK3 (human) (UniProt Q9H4B4)
TAOK3 (human) = TAOK3 (human) (UniProt Q9H2K8)
CLK1 (human) = CLK1 (human) (UniProt P49759)
RPS6KB2 (human) = RPS6KB2 (human) (UniProt Q9UBS0)
ZAP70 (human) = ZAP70 (human) (UniProt P43403)
TXK (human) = TXK (human) (UniProt P42681)
NTRK2 (human) = NTRK2 (human) (UniProt Q16620)
PLK2 (human) = PLK2 (human) (UniProt Q9NYY3)
NLK (human) = NLK (human) (UniProt Q9UBE8)
WNK2 (human) = WNK2 (human) (UniProt Q9Y3S1)
[1] = molecular target: TYK2 JH1 catalytic (human) (UniProt P29597)
SGK3 (human) = SGK3 (human) (UniProt Q96BR1)
CDK9 CCNK (human) = CDK9 CCNK (human) (UniProt O75909+P50750)
GSG2 (human) = GSG2 (human) (UniProt Q8TF76)
STK4 (human) = STK4 (human) (UniProt Q13043)
TEK (human) = TEK (human) (UniProt Q02763)
HIPK2 (human) = HIPK2 (human) (UniProt Q9H2X6)
FLT1 (human) = FLT1 (human) (UniProt P17948)
CAMK1G (human) = CAMK1G (human) (UniProt Q96NX5)
PAK1 (human) = PAK1 (human) (UniProt Q13153)
STK38 (human) = STK38 (human) (UniProt Q15208)
MAP3K9 (human) = MAP3K9 (human) (UniProt P80192)
YES1 (human) = YES1 (human) (UniProt P07947)
FLT3 (human) = FLT3 (human) (UniProt P36888)
CSNK1E (human) = CSNK1E (human) (UniProt P49674)
MAPKAPK2 (human) = MAPKAPK2 (human) (UniProt P49137)
MAP3K14 (human) = MAP3K14 (human) (UniProt Q99558)
MAP3K5 (human) = MAP3K5 (human) (UniProt Q99683)
DAPK1 (human) = DAPK1 (human) (UniProt P53355)
SYK (human) = SYK (human) (UniProt P43405)
SRPK2 (human) = SRPK2 (human) (UniProt P78362)
MAP3K3 (human) = MAP3K3 (human) (UniProt Q99759)
PTK2B (human) = PTK2B (human) (UniProt Q14289)
HIPK4 (human) = HIPK4 (human) (UniProt Q8NE63)
ITK (human) = ITK (human) (UniProt Q08881)
PRKCE (human) = PRKCE (human) (UniProt Q02156)

Chain of SGK3 (human) (Q96BR1 whole entry, looked up): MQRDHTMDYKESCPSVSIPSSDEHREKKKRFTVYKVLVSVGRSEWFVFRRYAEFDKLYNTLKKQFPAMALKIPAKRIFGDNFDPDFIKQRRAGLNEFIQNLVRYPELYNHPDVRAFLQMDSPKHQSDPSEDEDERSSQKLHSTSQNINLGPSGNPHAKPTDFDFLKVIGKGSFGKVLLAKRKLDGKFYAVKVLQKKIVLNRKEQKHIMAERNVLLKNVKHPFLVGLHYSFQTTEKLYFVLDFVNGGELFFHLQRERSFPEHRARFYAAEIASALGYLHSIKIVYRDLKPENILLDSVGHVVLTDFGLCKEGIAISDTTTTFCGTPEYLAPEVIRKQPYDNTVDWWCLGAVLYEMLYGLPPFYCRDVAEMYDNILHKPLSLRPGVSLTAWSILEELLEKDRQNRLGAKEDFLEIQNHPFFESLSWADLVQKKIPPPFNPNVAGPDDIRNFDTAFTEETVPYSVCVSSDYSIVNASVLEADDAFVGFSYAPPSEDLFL
Chain of CDK9 CCNK (human) (O75909 whole entry, looked up): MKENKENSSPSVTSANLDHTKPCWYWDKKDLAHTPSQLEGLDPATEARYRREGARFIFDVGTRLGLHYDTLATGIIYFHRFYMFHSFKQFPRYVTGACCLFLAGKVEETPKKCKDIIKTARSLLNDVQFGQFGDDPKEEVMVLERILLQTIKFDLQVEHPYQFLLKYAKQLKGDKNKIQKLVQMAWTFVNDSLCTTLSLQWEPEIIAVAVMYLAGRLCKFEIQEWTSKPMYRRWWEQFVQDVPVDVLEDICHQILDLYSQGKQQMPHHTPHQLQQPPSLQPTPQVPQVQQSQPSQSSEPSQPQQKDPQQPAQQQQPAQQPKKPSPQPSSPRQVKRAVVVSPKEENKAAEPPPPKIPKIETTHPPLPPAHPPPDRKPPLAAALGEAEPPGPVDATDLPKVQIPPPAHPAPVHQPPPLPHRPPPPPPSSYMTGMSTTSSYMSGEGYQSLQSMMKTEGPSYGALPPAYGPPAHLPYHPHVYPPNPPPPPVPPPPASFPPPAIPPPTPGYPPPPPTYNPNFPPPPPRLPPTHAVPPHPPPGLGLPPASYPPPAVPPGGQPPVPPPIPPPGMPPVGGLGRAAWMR
Chain of CDK9 CCNK (human) (P50750 whole entry, looked up): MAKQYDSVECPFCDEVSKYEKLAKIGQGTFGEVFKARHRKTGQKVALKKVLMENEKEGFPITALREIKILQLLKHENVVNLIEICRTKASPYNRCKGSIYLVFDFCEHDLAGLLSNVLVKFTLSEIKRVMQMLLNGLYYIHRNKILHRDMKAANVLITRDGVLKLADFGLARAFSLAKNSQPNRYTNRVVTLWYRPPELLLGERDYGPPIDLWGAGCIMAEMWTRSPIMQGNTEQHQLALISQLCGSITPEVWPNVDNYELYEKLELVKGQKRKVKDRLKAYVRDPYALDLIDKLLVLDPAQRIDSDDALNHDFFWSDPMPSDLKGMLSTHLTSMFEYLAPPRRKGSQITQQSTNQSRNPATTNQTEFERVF
Chain of CAMK1G (human) (Q96NX5 whole entry, looked up): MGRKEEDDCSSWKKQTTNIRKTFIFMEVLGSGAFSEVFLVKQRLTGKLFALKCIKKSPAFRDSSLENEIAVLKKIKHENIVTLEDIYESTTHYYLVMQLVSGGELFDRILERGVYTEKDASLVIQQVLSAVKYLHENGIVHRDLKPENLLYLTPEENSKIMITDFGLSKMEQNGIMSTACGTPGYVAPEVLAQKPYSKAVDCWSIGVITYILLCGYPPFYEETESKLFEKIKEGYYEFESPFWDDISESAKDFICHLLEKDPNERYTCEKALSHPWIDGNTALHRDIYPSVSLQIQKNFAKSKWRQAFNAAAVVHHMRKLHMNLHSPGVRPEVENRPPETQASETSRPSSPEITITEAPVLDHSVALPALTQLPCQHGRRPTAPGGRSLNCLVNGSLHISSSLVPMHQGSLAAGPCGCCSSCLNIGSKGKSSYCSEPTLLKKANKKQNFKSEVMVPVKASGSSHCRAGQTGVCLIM
Chain of RPS6KB2 (human) (Q9UBS0 whole entry, looked up): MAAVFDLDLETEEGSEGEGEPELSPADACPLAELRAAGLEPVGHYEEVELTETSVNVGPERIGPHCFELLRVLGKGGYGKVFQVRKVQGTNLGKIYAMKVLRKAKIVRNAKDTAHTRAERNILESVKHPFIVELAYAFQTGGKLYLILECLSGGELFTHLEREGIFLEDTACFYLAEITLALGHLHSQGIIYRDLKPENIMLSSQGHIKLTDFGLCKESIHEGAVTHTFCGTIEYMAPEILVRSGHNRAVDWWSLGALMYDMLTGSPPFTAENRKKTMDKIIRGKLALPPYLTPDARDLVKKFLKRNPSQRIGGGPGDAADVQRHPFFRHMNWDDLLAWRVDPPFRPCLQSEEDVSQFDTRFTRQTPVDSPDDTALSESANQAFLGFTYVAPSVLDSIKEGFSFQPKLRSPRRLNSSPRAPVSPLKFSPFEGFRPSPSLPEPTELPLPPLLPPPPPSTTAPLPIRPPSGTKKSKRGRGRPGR
Chain of IGF1R (human) (P08069 whole entry, looked up): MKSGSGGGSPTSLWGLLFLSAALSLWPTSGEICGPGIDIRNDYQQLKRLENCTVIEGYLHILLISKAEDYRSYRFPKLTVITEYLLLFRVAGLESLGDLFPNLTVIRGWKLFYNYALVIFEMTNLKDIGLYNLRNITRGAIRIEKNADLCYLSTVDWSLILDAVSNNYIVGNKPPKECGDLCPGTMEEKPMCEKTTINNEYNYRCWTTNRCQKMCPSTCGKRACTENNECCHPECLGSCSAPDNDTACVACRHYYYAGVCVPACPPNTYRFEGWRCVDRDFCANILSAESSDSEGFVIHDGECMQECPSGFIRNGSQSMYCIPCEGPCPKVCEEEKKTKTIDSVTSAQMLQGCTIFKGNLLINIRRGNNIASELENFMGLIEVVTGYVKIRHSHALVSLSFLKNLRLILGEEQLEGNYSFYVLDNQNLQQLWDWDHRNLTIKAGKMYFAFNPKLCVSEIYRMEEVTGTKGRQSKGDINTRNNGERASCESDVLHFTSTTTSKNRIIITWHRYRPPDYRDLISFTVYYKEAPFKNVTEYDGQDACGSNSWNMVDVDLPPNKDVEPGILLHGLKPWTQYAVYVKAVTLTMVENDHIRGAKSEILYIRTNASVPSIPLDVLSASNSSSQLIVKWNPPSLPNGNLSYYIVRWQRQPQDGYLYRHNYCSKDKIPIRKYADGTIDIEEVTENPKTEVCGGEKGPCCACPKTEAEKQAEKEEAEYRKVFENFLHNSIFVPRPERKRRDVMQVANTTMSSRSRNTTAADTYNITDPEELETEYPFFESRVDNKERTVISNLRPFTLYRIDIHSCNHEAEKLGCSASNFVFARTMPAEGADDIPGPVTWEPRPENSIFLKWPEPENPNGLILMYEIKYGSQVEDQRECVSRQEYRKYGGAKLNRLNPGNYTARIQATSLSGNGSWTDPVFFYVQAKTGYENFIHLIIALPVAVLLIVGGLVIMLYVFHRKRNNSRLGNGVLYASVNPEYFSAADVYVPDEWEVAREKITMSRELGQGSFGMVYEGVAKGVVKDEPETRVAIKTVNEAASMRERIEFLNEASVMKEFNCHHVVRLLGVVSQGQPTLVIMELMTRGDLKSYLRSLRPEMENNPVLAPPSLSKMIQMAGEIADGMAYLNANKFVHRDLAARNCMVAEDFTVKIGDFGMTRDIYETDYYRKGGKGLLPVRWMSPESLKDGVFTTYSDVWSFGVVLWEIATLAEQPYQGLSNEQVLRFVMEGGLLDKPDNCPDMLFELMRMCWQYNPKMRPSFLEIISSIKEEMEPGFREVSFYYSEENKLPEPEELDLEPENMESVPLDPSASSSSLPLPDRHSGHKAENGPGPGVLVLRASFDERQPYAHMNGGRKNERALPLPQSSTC
Chain of HIPK2 (human) (Q9H2X6 whole entry, looked up): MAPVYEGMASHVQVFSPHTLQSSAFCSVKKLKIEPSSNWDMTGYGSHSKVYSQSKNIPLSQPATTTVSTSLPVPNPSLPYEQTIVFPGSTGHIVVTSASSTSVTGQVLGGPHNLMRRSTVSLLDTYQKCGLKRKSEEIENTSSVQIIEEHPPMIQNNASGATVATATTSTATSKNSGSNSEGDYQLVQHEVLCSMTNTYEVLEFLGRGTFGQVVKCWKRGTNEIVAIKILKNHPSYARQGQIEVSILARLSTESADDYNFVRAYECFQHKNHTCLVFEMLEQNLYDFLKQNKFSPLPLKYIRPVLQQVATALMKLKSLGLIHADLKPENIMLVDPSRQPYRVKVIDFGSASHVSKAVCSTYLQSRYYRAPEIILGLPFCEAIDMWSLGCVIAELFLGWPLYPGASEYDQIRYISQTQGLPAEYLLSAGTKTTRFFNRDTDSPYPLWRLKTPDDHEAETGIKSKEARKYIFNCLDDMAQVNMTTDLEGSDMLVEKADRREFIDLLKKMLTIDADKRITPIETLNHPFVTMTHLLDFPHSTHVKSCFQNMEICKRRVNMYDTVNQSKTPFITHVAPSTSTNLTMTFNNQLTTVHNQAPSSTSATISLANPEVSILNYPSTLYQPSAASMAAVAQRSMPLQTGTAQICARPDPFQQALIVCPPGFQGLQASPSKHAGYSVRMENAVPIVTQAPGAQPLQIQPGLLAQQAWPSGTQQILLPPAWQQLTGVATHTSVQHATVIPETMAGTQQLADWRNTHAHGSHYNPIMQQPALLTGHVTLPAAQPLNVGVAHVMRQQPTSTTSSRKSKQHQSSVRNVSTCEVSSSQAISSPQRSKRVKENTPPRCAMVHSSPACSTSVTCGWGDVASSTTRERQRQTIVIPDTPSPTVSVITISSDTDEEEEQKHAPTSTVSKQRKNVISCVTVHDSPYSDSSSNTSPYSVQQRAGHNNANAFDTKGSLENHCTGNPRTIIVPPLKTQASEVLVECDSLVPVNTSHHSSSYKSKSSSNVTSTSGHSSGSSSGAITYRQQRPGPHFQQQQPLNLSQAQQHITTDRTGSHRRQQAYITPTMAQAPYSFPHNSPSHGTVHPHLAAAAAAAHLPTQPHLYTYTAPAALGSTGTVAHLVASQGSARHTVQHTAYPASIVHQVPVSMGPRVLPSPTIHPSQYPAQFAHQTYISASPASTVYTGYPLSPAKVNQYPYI

SMILES: O=C1NC(=O)C(c2cn(CCCn3ccnc3)c3ccccc23)=C1Nc1ccccc1
- residual activity (CDK9 CCNT1 (human)): 51.3%
- residual activity (STK33 (human)): 82.9%
- residual activity (AURKB (human)): 95.4%
- residual activity (IGF1R (human)): 95.3%
- residual activity (MYO3B (human)): 36%
- residual activity (AXL (human)): 98.8%
- residual activity (PLK3 (human)): 99.8%
- residual activity (TAOK3 (human)): 76.5%
- residual activity (CLK1 (human)): 43.3%
- residual activity (RPS6KB2 (human)): 86.1%
- residual activity (ZAP70 (human)): 104%
- residual activity (TXK (human)): 95.3%
- residual activity (NTRK2 (human)): 85.8%
- residual activity (PLK2 (human)): 101%
- residual activity (NLK (human)): 97%
- residual activity (WNK2 (human)): 99.8%
- residual activity [1]: 83.4%
- residual activity (SGK3 (human)): 89.9%
- residual activity (CDK9 CCNK (human)): 64.6%
- residual activity (GSG2 (human)): 95.8%
- residual activity (STK4 (human)): 40.9%
- residual activity (TEK (human)): 92.3%
- residual activity (HIPK2 (human)): 87.6%
- residual activity (FLT1 (human)): 85.7%
- residual activity (CAMK1G (human)): 84.6%
- residual activity (PAK1 (human)): 92.9%
- residual activity (STK38 (human)): 99.1%
- residual activity (MAP3K9 (human)): 30.6%
- residual activity (YES1 (human)): 89.3%
- residual activity (FLT3 (human)): 8.21%
- residual activity (CSNK1E (human)): 96.7%
- residual activity (MAPKAPK2 (human)): 102%
- residual activity (MAP3K14 (human)): 96.1%
- residual activity (MAP3K5 (human)): 105%
- residual activity (DAPK1 (human)): 99.2%
- residual activity (SYK (human)): 99.9%
- residual activity (SRPK2 (human)): 96.2%
- residual activity (MAP3K3 (human)): 95.8%
- residual activity (PTK2B (human)): 93.3%
- residual activity (HIPK4 (human)): 90.7%
- residual activity (ITK (human)): 93.9%
- residual activity (PRKCE (human)): 12.8%

SMILES: O=C1NC(=O)/C(=C/c2ccc3c(c2)OC(F)(F)O3)S1
- residual activity (CDK9 CCNT1 (human)): 98.7%
- residual activity (STK33 (human)): 90.8%
- residual activity (AURKB (human)): 102%
- residual activity (IGF1R (human)): 101%
- residual activity (MYO3B (human)): 87.9%
- residual activity (AXL (human)): 107%
- residual activity (PLK3 (human)): 92.4%
- residual activity (TAOK3 (human)): 84.7%
- residual activity (CLK1 (human)): 102%
- residual activity (RPS6KB2 (human)): 101%
- residual activity (ZAP70 (human)): 99.2%
- residual activity (TXK (human)): 95.4%
- residual activity (NTRK2 (human)): 91.9%
- residual activity (PLK2 (human)): 99.7%
- residual activity (NLK (human)): 93.8%
- residual activity (WNK2 (human)): 113%
- residual activity [1]: 88.4%
- residual activity (SGK3 (human)): 94.7%
- residual activity (CDK9 CCNK (human)): 93.5%
- residual activity (GSG2 (human)): 96.7%
- residual activity (STK4 (human)): 93.3%
- residual activity (TEK (human)): 91.9%
- residual activity (HIPK2 (human)): 104%
- residual activity (FLT1 (human)): 81.5%
- residual activity (CAMK1G (human)): 107%
- residual activity (PAK1 (human)): 93.3%
- residual activity (STK38 (human)): 107%
- residual activity (MAP3K9 (human)): 101%
- residual activity (YES1 (human)): 87.9%
- residual activity (FLT3 (human)): 92.9%
- residual activity (CSNK1E (human)): 96.9%
- residual activity (MAPKAPK2 (human)): 94.4%
- residual activity (MAP3K14 (human)): 106%
- residual activity (MAP3K5 (human)): 105%
- residual activity (DAPK1 (human)): 120%
- residual activity (SYK (human)): 95.3%
- residual activity (SRPK2 (human)): 105%
- residual activity (MAP3K3 (human)): 103%
- residual activity (PTK2B (human)): 110%
- residual activity (HIPK4 (human)): 99.4%
- residual activity (ITK (human)): 92.9%
- residual activity (PRKCE (human)): 103%
